# Measurements: patent US20260217767A1, “NOVEL A4B7 THIOETHER PEPTIDE DIMER ANTAGONISTS” (Protagonist Therapeutics, Inc., priority 2014, published 2026)
# *1 amine or outer side, *2 acyl side, *3 side chain or, on linkers, in order; H or OH if unused. Where a SMILES comes first, the peptide text is derived from it. Bridges are numbered along the chain shown (N, C = ends). Roman numbers before positions name the chains, in order. [ ]: non-standard residue; d: D form. Phe(4-CF3) = N[C@@H](Cc1ccc(C(F)(F)F)cc1)C(=O)O; Bip = N[C@@H](Cc1ccc(-c2ccccc2)cc1)C(=O)O; 1Nal = N[C@@H](Cc1cccc2ccccc12)C(=O)O; Diglycolyl = O=C(COCC(=O)[*:2])[*:1]; NMeR = CN[C@@H](CCCNC(=N)N)C(=O)O; Tic = O=C(O)[C@@H]1Cc2ccccc2CN1; X1 = O=C(c1ccccc1C[*:2])[*:1]; Pen = CC(C)(S)[C@H](N)C(=O)O
# Molecular target: T1, RPMI 8866 cells (Homo sapiens, UniProt P13612+P26010)
# T1 sequence (P13612 34-1032): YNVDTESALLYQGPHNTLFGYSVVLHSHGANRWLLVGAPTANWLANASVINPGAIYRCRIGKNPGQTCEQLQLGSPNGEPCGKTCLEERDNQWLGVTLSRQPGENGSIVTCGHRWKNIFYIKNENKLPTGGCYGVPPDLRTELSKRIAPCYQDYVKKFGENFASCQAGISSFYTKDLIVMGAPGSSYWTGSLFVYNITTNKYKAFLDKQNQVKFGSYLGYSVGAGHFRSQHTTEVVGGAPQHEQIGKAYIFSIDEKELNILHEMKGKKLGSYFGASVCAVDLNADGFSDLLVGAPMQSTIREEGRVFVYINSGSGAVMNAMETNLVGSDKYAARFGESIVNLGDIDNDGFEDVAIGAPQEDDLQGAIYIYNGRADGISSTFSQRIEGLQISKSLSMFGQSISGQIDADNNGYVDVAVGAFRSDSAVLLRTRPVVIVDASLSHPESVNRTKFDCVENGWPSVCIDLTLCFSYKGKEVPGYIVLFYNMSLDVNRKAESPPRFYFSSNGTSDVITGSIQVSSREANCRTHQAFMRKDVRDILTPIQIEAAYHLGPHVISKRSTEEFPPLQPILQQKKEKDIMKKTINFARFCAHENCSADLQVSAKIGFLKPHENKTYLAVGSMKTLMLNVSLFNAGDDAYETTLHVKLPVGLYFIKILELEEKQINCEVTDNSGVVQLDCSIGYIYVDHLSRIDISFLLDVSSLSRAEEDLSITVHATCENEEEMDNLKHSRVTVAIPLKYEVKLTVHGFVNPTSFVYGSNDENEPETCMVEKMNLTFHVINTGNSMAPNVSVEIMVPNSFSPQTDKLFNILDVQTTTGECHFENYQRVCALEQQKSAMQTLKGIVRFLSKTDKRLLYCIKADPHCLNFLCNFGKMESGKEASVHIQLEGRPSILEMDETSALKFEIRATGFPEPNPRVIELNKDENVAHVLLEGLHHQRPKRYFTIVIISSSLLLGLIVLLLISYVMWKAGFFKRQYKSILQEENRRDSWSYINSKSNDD
# T1 sequence (P26010 20-798): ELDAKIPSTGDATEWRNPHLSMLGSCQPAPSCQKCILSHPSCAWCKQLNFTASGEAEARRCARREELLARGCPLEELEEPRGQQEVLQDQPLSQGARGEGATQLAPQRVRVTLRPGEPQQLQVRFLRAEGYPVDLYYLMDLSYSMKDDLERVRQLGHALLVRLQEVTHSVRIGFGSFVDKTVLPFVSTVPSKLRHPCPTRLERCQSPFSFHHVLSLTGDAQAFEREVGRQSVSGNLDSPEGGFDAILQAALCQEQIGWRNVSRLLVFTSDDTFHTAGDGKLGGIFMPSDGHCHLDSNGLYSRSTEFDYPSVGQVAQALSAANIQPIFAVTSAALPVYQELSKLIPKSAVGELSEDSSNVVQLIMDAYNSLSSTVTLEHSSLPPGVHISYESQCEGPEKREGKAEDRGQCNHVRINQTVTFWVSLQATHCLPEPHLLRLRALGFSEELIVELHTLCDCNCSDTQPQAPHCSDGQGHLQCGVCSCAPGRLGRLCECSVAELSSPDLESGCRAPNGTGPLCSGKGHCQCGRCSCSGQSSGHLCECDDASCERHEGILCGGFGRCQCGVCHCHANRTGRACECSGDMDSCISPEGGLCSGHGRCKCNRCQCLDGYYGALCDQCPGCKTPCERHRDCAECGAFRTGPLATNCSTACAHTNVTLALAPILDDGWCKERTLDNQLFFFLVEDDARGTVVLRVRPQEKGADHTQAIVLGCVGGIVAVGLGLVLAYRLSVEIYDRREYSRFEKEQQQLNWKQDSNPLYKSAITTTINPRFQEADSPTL
# Assay: α4β7-MAdCAM Cell Adhesion Assay
# Type: cell-based
# Details: thioether peptide dimers, Table 7; read-out: Cell-Adhesion A4B7
# Procedure, shortened: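 RPMI 8866 cells (200,000/well) in DMEM with 1 mM MnCl2 and 0.1% BSA were allowed to adhere 30-45 min at 37° C to plates coated with rh MAdCAM-1/Fc (200 ng/well) in presence of serially diluted peptide. After washing, bound cells quantified by MTT, absorbance 570 nm, cell-free background subtracted.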
row,Compound,IC50 [nM]
1,"CC(C)C[C@@H]1NC(=O)[C@H]([C@@H](C)O)NC(=O)[C@H](CC(=O)O)NC(=O)[C@H](CO)NC(=O)[C@H](CCCNC(=N)N)N(C)C(=O)c2ccccc2CSC(C)(C)[C@@H](C(=O)N[C@@H](Cc2ccc(C(F)(F)F)cc2)C(=O)N[C@@H](CCC(=O)O)C(=O)N[C@H](CCCCNC(=O)COCC(=O)NCCCC[C@@H](NC(=O)[C@H](CCC(=O)O)NC(=O)[C@H](Cc2ccc(C(F)(F)F)cc2)NC(=O)[C@H]2NC(=O)[C@H](CC(C)C)NC(=O)[C@H]([C@@H](C)O)NC(=O)[C@H](CC(=O)O)NC(=O)[C@H](CO)NC(=O)[C@H](CCCNC(=N)N)N(C)C(=O)c3ccccc3CSC2(C)C)C(N)=O)C(N)=O)NC1=O [compound 166] (I: [NMeR]SDTL[Pen][Phe(4-CF3)]E[dK]-NH2 / II: [NMeR]SDTL[Pen][Phe(4-CF3)]E[dK]-NH2; linker I:9-II:9 via Diglycolyl; linker I:N-I:6, II:N-II:6 via X1)",< 25
2,"CC(C)C[C@@H]1NC(=O)[C@H]([C@@H](C)O)NC(=O)[C@H](CC(=O)O)NC(=O)[C@H](CO)NC(=O)[C@H](CCCNC(=N)N)N(C)C(=O)c2ccccc2CSC(C)(C)[C@@H](C(=O)N[C@@H](Cc2cccc3ccccc23)C(=O)N[C@@H](CCC(=O)O)C(=O)N[C@H](CCCCNC(=O)COCC(=O)NCCCC[C@@H](NC(=O)[C@H](CCC(=O)O)NC(=O)[C@H](Cc2cccc3ccccc23)NC(=O)[C@H]2NC(=O)[C@H](CC(C)C)NC(=O)[C@H]([C@@H](C)O)NC(=O)[C@H](CC(=O)O)NC(=O)[C@H](CO)NC(=O)[C@H](CCCNC(=N)N)N(C)C(=O)c3ccccc3CSC2(C)C)C(N)=O)C(N)=O)NC1=O [compound 167] (I: [NMeR]SDTL[Pen][1Nal]E[dK]-NH2 / II: [NMeR]SDTL[Pen][1Nal]E[dK]-NH2; linker I:9-II:9 via Diglycolyl; linker I:N-I:6, II:N-II:6 via X1)",< 25
3,"CC(C)C[C@@H]1NC(=O)[C@H]([C@@H](C)O)NC(=O)[C@H](CC(=O)O)NC(=O)[C@H](CO)NC(=O)[C@H](CCCNC(=N)N)N(C)C(=O)c2ccccc2CSC(C)(C)[C@@H](C(=O)N[C@@H](Cc2ccc(-c3ccccc3)cc2)C(=O)N[C@H](CCC(=O)O)C(=O)N[C@H](CCCCN)C(N)=O)NC1=O [compound 178] (HELM PEPTIDE1{[meR].S.D.T.L.[Pen].[O=C([C@H](Cc1ccc(-c2ccccc2)cc1)N[*:1])[*:2]].[dE].[dK].[am]}|CHEM1{[O=C(c1ccccc1C[*:2])[*:1]]}$PEPTIDE1,CHEM1,1:R1-1:R1|PEPTIDE1,CHEM1,6:R3-1:R2$$$V2.0)",< 25
4,"CC(C)C[C@@H]1NC(=O)[C@H]([C@@H](C)O)NC(=O)[C@H](CC(=O)O)NC(=O)[C@H](CO)NC(=O)[C@H](CCCNC(=N)N)N(C)C(=O)c2ccccc2CSC[C@@H](C(=O)N2Cc3ccccc3C[C@H]2C(=O)N[C@H](CCC(=O)O)C(=O)N[C@H](CCCCNC(=O)COCC(=O)NCCCC[C@@H](NC(=O)[C@@H](CCC(=O)O)NC(=O)[C@@H]2Cc3ccccc3CN2C(=O)[C@@H]2CSCc3ccccc3C(=O)N(C)[C@@H](CCCNC(=N)N)C(=O)N[C@@H](CO)C(=O)N[C@@H](CC(=O)O)C(=O)N[C@@H]([C@@H](C)O)C(=O)N[C@@H](CC(C)C)C(=O)N2)C(N)=O)C(N)=O)NC1=O [compound 184] (I: [NMeR]SDTLC[Tic][dE][dK]-NH2 / II: [NMeR]SDTLC[Tic][dE][dK]-NH2; linker I:9-II:9 via Diglycolyl; linker I:N-I:6, II:N-II:6 via X1)",< 25
5,"CC(C)C[C@@H]1NC(=O)[C@H]([C@@H](C)O)NC(=O)[C@H](CC(=O)O)NC(=O)[C@H](CO)NC(=O)[C@H](CCCNC(=N)N)N(C)C(=O)c2ccccc2CSC(C)(C)[C@@H](C(=O)N[C@@H](Cc2ccccc2)C(=O)N[C@H](CCC(=O)O)C(=O)N[C@H](CCCCNC(=O)COCC(=O)NCCCC[C@@H](NC(=O)[C@@H](CCC(=O)O)NC(=O)[C@H](Cc2ccccc2)NC(=O)[C@H]2NC(=O)[C@H](CC(C)C)NC(=O)[C@H]([C@@H](C)O)NC(=O)[C@H](CC(=O)O)NC(=O)[C@H](CO)NC(=O)[C@H](CCCNC(=N)N)N(C)C(=O)c3ccccc3CSC2(C)C)C(=O)O)C(=O)O)NC1=O [compound 204] (I: [NMeR]SDTL[Pen]F[dE][dK]-OH / II: [NMeR]SDTL[Pen]F[dE][dK]-OH; linker I:9-II:9 via Diglycolyl; linker I:N-I:6, II:N-II:6 via X1)",< 25
6,"CC(C)C[C@@H]1NC(=O)[C@H]([C@@H](C)O)NC(=O)[C@H](CC(=O)O)NC(=O)[C@H](CO)NC(=O)[C@H](CCCNC(=N)N)N(C)C(=O)c2ccccc2CSC[C@@H](C(=O)N2Cc3ccccc3C[C@H]2C(=O)N[C@H](CCC(=O)O)C(=O)N[C@H](CCCCNC(=O)COCC(=O)NCCCC[C@@H](NC(=O)[C@@H](CCC(=O)O)NC(=O)[C@@H]2Cc3ccccc3CN2C(=O)[C@@H]2CSCc3ccccc3C(=O)N(C)[C@@H](CCCNC(=N)N)C(=O)N[C@@H](CO)C(=O)N[C@@H](CC(=O)O)C(=O)N[C@@H]([C@@H](C)O)C(=O)N[C@@H](CC(C)C)C(=O)N2)C(=O)O)C(=O)O)NC1=O [compound 207] (I: [NMeR]SDTLC[Tic][dE][dK]-OH / II: [NMeR]SDTLC[Tic][dE][dK]-OH; linker I:9-II:9 via Diglycolyl; linker I:N-I:6, II:N-II:6 via X1)",< 25
7,"CC(C)C[C@@H]1NC(=O)[C@H]([C@@H](C)O)NC(=O)[C@H](CC(=O)O)NC(=O)[C@H](CO)NC(=O)[C@H](CCCNC(=N)N)N(C)C(=O)c2ccccc2CSC(C)(C)[C@@H](C(=O)N[C@@H](Cc2ccc(-c3ccccc3)cc2)C(=O)N[C@H](CCC(=O)O)C(=O)N[C@H](CCCCNC(=O)COCC(=O)NCCCC[C@@H](NC(=O)[C@@H](CCC(=O)O)NC(=O)[C@H](Cc2ccc(-c3ccccc3)cc2)NC(=O)[C@H]2NC(=O)[C@H](CC(C)C)NC(=O)[C@H]([C@@H](C)O)NC(=O)[C@H](CC(=O)O)NC(=O)[C@H](CO)NC(=O)[C@H](CCCNC(=N)N)N(C)C(=O)c3ccccc3CSC2(C)C)C(=O)O)C(=O)O)NC1=O [compound 208] (I: [NMeR]SDTL[Pen][Bip][dE][dK]-OH / II: [NMeR]SDTL[Pen][Bip][dE][dK]-OH; linker I:9-II:9 via Diglycolyl; linker I:N-I:6, II:N-II:6 via X1)",< 25
8,"CC(C)C[C@@H]1NC(=O)[C@H]([C@@H](C)O)NC(=O)[C@H](CC(=O)O)NC(=O)[C@H](CO)NC(=O)[C@H](CCCNC(=N)N)N(C)C(=O)c2ccccc2CSC(C)(C)[C@@H](C(=O)N[C@@H](Cc2c[nH]c3ccccc23)C(=O)N[C@H](CCC(=O)O)C(=O)N[C@H](CCCCNC(=O)COCC(=O)NCCCC[C@@H](NC(=O)[C@@H](CCC(=O)O)NC(=O)[C@H](Cc2c[nH]c3ccccc23)NC(=O)[C@H]2NC(=O)[C@H](CC(C)C)NC(=O)[C@H]([C@@H](C)O)NC(=O)[C@H](CC(=O)O)NC(=O)[C@H](CO)NC(=O)[C@H](CCCNC(=N)N)N(C)C(=O)c3ccccc3CSC2(C)C)C(=O)O)C(=O)O)NC1=O [compound 209] (I: [NMeR]SDTL[Pen]W[dE][dK]-OH / II: [NMeR]SDTL[Pen]W[dE][dK]-OH; linker I:9-II:9 via Diglycolyl; linker I:N-I:6, II:N-II:6 via X1)",< 25
